For one assay, the system named is Ba/F3 ROS1-G2032R. In words: Antiproliferation assay. It counts as cell-based, mouse. The settings on record: Mus musculus, BaF3; Ba/F3 cells, cell growth inhibition, 72 h. The text has this: (§1) To assess targeted degradation of ROS1 fusion proteins, we first established a mouse pro-B cell line Ba/F3 as a model expressing the CD74-ROS1 oncogene or CD74-ROS1 with clinically observed secondary/tertiary mutations. The Ba/F3 cell line is dependent on interleukin-3 for survival and proliferation. Upon transduction of oncogenic ROS1, Ba/F3 cells become independent of interleukin-3 but dependent on the transduced driver gene.
(§2) Ba/F3 immortalized murine bone marrow–derived pro-B cells were obtained from Creative Biogene (Shirley, NY) and cultured in RPMI supplemented with 10% FBS and IL3 (0.5 ng/mL). Ba/F3 cells expressing ROS1 variants were maintained in RPMI supplemented with 10% FBS and puromycin (0.7 mg/mL). […] Each compound was dissolved in DMSO and serially diluted in RPMI for cell culture experiments.
(§3) To assess the 72 h effect of drug treatment on cell proliferation, 2000 to 3000 cells were plated in replicates of three in 96-well plates. The plates were placed in an incubator at 37 °C, 5% CO2 for 72 h. Following drug treatments, the cells were incubated with the Alamar Blue Assay reagent (BioRad), 5 μL each well for 4 h at 37 °C and 5% CO2. Luminescence was measured on a multiplate reader and analyzed. […] IC50 values were determined using a nonlinear regression model with a sigmoidal dose response in GraphPad. The data were collected based on triplicate experiments, and presented as mean ± SD.
(§4) The resulting virus was used to infect Ba/F3 cells. After retroviral infection, Ba/F3 cells were selected by incubation with puromycin (0.7 mg/mL) for 2 weeks. For Ba/F3 cells infected by the CD74–ROS1 variants, IL3 was withdrawn from the culture medium at least 2 weeks before the experiments.

In another assay the test system is ROS1. In words: ROS1 degradation in Ba/F3 cells (WES immunoblotting). It is filed as cell-based. The settings on record: for DC50: concentration needed to reduce ROS1 protein by 50%, Ba/F3 cells; for Dmax (%) (ROS1): maximal degradation of ROS1 in Ba/F3 cells. As for the experimental part:
Protein levels were analyzed using a WES instrument according to the WES User Guide from ProteinSimple in duplicate experiments. The samples were mixed with the fluorescent 5 master mix (ProteinSimple) and then heated at 95 °C for 5 min. Boiled samples, biotinylated protein ladder, antibody diluent, Streptavidin-HRP, primary antibodies, ProteinSimple horseradish peroxidase conjugated antirabbit or antimouse secondary antibodies, luminol-peroxide, and wash buffer were loaded into the WES plate (Wes 12–230 kDa Prefilled Plates with Split Buffer, ProteinSimple). The plates and capillary cartridges were loaded into the WES instrument, and protein separation, antibody incubation, and imaging were performed according to manufacturer’s instructions. Compass software (ProteinSimple) was used to acquire the data and to generate the virtual blot image reconstruction and chemiluminescence signal intensity electropherograms. […] Protein levels are expressed as the AUC of the peak chemiluminescence intensity. Antibodies against phospho-ROS1(Tyr2274/2334) (E8F5J), ROS1 (D4D6(R)) were obtained from Cell Signaling Technology.

Assay [1] concerns Ba/F3 CD74-ROS1 non mutant. As to the kind of experiment: Antiproliferation assay (Alamar Blue, 72 h). The conditions noted are these: Mus musculus, BaF3, 72 h, Ba/F3 cells, cell growth inhibition. It counts as cell-based, mouse.
From the text: as §1, §2, §3, §4

The results in this text go back to publication PMC11513893, “Discovery of Oral Degraders of the ROS1 Fusion Protein with Potent Activity against Secondary Resistance Mutations” (Journal of Medicinal Chemistry, 2024).

The molecule `Cc1cc(Nc2ncc(Cl)c(Nc3ccccc3S(=O)(=O)C(C)C)n2)c(OC(C)C)cc1C1CCN(C2CCN(CC3CN(c4ccc5c(c4)C(=O)N(C4CCC(=O)NC4=O)C5=O)C3)CC2)CC1` (stereo not shown) [8n, 5-(3-((4-(4-((5-Chloro-4-((2-(isopropylsulfonyl)phenyl)amino)pyrimidin-2-yl)amino)-5-isopropoxy-2-methylphenyl)-[1,4′-bipiperidin]-1′-yl)methyl)azetidin-1-yl)-2-(2,6-dioxopiperidin-3-yl)isoindoline-1,3-dione] returned an IC50 in the assay on Ba/F3 ROS1-G2032R of 1150 ± 466 nM. In the assay on ROS1, half-maximal degradation (DC50) was put at 586 nM and the “Dmax (%) (ROS1)” value is 63%. In assay [1], 713 ± 84 nM corresponded to half-maximal inhibition (IC50).

Take `Cc1cc(Nc2ncc(Cl)c(Nc3ccccc3S(=O)(=O)C(C)C)n2)c(OC(C)C)cc1C1CCN(C2CN(C3CN(c4ccc5c(c4)C(=O)N(C4CCC(=O)NC4=O)C5=O)C3)C2)CC1` (stereo not shown) [8o, 5-(3-(4-(4-((5-Chloro-4-((2-(isopropylsulfonyl)phenyl)amino)pyrimidin-2-yl)amino)-5-isopropoxy-2-methylphenyl)piperidin-1-yl)-[1,3′-biazetidin]-1′-yl)-2-(2,6-dioxopiperidin-3-yl)isoindoline-1,3-dione]: the IC50 with Ba/F3 ROS1-G2032R was over 10000 nM. Also, in the assay with ROS1, the DC50 amounted to 122 nM and the “Dmax (%) (ROS1)” value was found to be 65%. Further, the half-inhibitory concentration (IC50) in assay [1] was 116 ± 21 nM.

Turning to `Cc1cc(Nc2ncc(Cl)c(Nc3ccccc3S(=O)(=O)C(C)C)n2)c(OC(C)C)cc1C1CCN(C2CN(CC3CN(c4ccc5c(c4)C(=O)N(C4CCC(=O)NC4=O)C5=O)C3)C2)CC1` (stereo not shown) [8q, 5-(3-((3-(4-(4-((5-Chloro-4-((2-(isopropylsulfonyl)phenyl)amino)pyrimidin-2-yl)amino)-5-isopropoxy-2-methylphenyl)piperidin-1-yl)azetidin-1-yl)methyl)azetidin-1-yl)-2-(2,6-dioxopiperidin-3-yl)isoindoline-1,3-dione], the concentration for half-maximal inhibition (IC50) came out at 6120 ± 4070 nM in the assay on Ba/F3 ROS1-G2032R and 66 ± 6 nM in assay [1]. This molecule also displayed a half-maximal degradation concentration (DC50) in the assay with ROS1 of 57 nM. The “Dmax (%) (ROS1)” value in the assay on ROS1 came out at 85%.

In the case of `Cc1cc(Nc2ncc(Cl)c(Nc3ccccc3S(=O)(=O)C(C)C)n2)c(OC(C)C)cc1C1CCN(C2CN(CC3CCN(c4ccc5c(c4)C(=O)N(C4CCC(=O)NC4=O)C5=O)CC3)C2)CC1` (stereo not shown) [8r, 5-(4-((3-(4-(4-((5-Chloro-4-((2-(isopropylsulfonyl)phenyl)amino)pyrimidin-2-yl)amino)-5-isopropoxy-2-methylphenyl)piperidin-1-yl)azetidin-1-yl)methyl)piperidin-1-yl)-2-(2,6-dioxopiperidin-3-yl)isoindoline-1,3-dione], in the assay with Ba/F3 ROS1-G2032R, the IC50 is over 10000 nM. In the assay on ROS1, it took 77 nM to reach half-maximal degradation (DC50) and the “Dmax (%) (ROS1)” value amounted to 91%. The molecule also returned an IC50 in assay [1] of 72 ± 3 nM.

In the assay with Ba/F3 ROS1-G2032R, `Cc1cc(Nc2ncc(Cl)c(Nc3ccccc3S(=O)(=O)C(C)C)n2)c(OC(C)C)cc1C1CCN(C2CCN(C3CCN(c4ccc5c(c4)C(=O)N(C4CCC(=O)NC4=O)C5=O)CC3)CC2)CC1` (stereo not shown) [8s, 5-(4-(4-((5-Chloro-4-((2-(isopropylsulfonyl)phenyl)amino)pyrimidin-2-yl)amino)-5-isopropoxy-2-methylphenyl)-[1,4′:1′,4″-terpiperidin]-1″-yl)-2-(2,6-dioxopiperidin-3-yl)isoindoline-1,3-dione] had a 50% inhibitory concentration (IC50) of over 10000 nM. In addition, in the assay on ROS1, the DC50 turned out to be 120 nM and the “Dmax (%) (ROS1)” value worked out at 82%. The molecule further registered an IC50 in assay [1] of 106 ± 9 nM.

Take `Cc1cc(Nc2ncc(Cl)c(Nc3ccccc3S(=O)(=O)C(C)C)n2)c(OC(C)C)cc1C1CCN(C2CCN(CC3CCN(c4ccc5c(c4)C(=O)N(C4CCC(=O)NC4=O)C5=O)CC3)CC2)CC1` (stereo not shown) [8t, 5-(4-((4-(4-((5-Chloro-4-((2-(isopropylsulfonyl)phenyl)amino)pyrimidin-2-yl)amino)-5-isopropoxy-2-methylphenyl)-[1,4′-bipiperidin]-1′-yl)methyl)piperidin-1-yl)-2-(2,6-dioxopiperidin-3-yl)isoindoline-1,3-dione]: the IC50 in the assay on Ba/F3 ROS1-G2032R was over 10000 nM. Also, in the assay with ROS1, the 50% degradation concentration (DC50) was 155 nM and the “Dmax (%) (ROS1)” value worked out at 81%. This molecule also came in with an IC50 in assay [1] of 147 ± 28 nM.

Turning to `COc1cc(N2CCN(c3ccc4c(c3)C(=O)N(C3CCC(=O)NC3=O)C4=O)CC2)ccc1Nc1ncc(Cl)c(Nc2ccccc2P(C)(C)=O)n1` (stereo not shown) [9a, 5-(4-(4-((5-Chloro-4-((2-(dimethylphosphoryl)phenyl)amino)pyrimidin-2-yl)amino)-3-methoxyphenyl)piperazin-1-yl)-2-(2,6-dioxopiperidin-3-yl)isoindoline-1,3-dione], in the assay on Ba/F3 ROS1-G2032R, the IC50 came to 251 ± 125 nM. Also, in the assay with ROS1, half-maximal degradation (DC50) was put at 133 nM and the “Dmax (%) (ROS1)” value is 68%. The molecule further had an IC50 in assay [1] of 112 ± 17 nM.

In the assay with Ba/F3 ROS1-G2032R, `COc1cc(N2CCC(N3CCN(C4CN(c5ccc6c(c5)C(=O)N(C5CCC(=O)NC5=O)C6=O)C4)CC3)CC2)ccc1Nc1ncc(Cl)c(Nc2ccccc2P(C)(C)=O)n1` (stereo not shown) [9d, 5-(3-(4-(1-(4-((5-Chloro-4-((2-(dimethylphosphoryl)phenyl)amino)pyrimidin-2-yl)amino)-3-methoxyphenyl)piperidin-4-yl)piperazin-1-yl)azetidin-1-yl)-2-(2,6-dioxopiperidin-3-yl)isoindoline-1,3-dione] yielded a concentration for half-maximal inhibition (IC50) of 491 ± 48 nM. For the same molecule, in the assay with ROS1, it took 75 nM to reach half-maximal degradation (DC50) and the “Dmax (%) (ROS1)” value is 90%. This molecule displayed a concentration for half-maximal inhibition (IC50) in assay [1] of 61 ± 5 nM.

In the assay with Ba/F3 ROS1-G2032R, `COc1cc(C2CCN(C3CCN(CC4CCN(c5ccc6c(c5)C(=O)N(C5CCC(=O)NC5=O)C6=O)CC4)CC3)CC2)ccc1Nc1ncc(Cl)c(Nc2ccccc2P(C)(C)=O)n1` (stereo not shown) [9g, 5-(4-((4-(4-((5-Chloro-4-((2-(dimethylphosphoryl)phenyl)amino)pyrimidin-2-yl)amino)-3-methoxyphenyl)-[1,4′-bipiperidin]-1′-yl)methyl)piperidin-1-yl)-2-(2,6-dioxopiperidin-3-yl)isoindoline-1,3-dione] came in with a half-inhibitory concentration (IC50) of 221 ± 26 nM. In the assay on ROS1, the 50% degradation concentration (DC50) was 11 nM and the “Dmax (%) (ROS1)” value is on record as 88%. The same molecule registered an IC50 in assay [1] of 7.1 ± 0.9 nM.

`COc1cc(N2CCN(C3CCN(CC4CCN(c5ccc6c(c5)C(=O)N(C5CCC(=O)NC5=O)C6=O)CC4)CC3)CC2)ccc1Nc1ncc(Cl)c(Nc2ccccc2P(C)(C)=O)n1` (stereo not shown) [9h, 5-(4-((4-(4-(4-((5-Chloro-4-((2-(dimethylphosphoryl)phenyl)amino)pyrimidin-2-yl)amino)-3-methoxyphenyl)piperazin-1-yl)piperidin-1-yl)methyl)piperidin-1-yl)-2-(2,6-dioxopiperidin-3-yl)isoindoline-1,3-dione]: the IC50 in the assay on Ba/F3 ROS1-G2032R came to 115 ± 12 nM. In addition, in the assay with ROS1, half-maximal degradation (DC50) was put at 34 nM and the “Dmax (%) (ROS1)” value was found to be 85%. The IC50 in assay [1] came to 21 ± 8 nM.

Regarding `COc1cc(N2CCN(c3ccc4c(c3)CN(C3CCC(=O)NC3=O)C4=O)CC2)ccc1Nc1ncc(Cl)c(Nc2ccccc2P(C)(C)=O)n1` (stereo not shown) [9l, 3-(5-(4-(4-((5-Chloro-4-((2-(dimethylphosphoryl)phenyl)amino)pyrimidin-2-yl)amino)-3-methoxyphenyl)piperazin-1-yl)-1-oxoisoindolin-2-yl)piperidine-2,6-dione], half-maximal inhibition in the assay with Ba/F3 ROS1-G2032R (IC50) was put at 427 ± 32 nM. In addition, in the assay on ROS1, it took 8 nM to reach half-maximal degradation (DC50) and the “Dmax (%) (ROS1)” value came to 92%. Besides, the IC50 in assay [1] was 6.6 ± 0.4 nM.

`COc1cc(N2CCC(N3CCN(CC4CN(c5ccc6c(c5)CN(C5CCC(=O)NC5=O)C6=O)C4)CC3)CC2)ccc1Nc1ncc(Cl)c(Nc2ccccc2P(C)(C)=O)n1` (stereo not shown) [9p, 3-(5-(3-((4-(1-(4-((5-Chloro-4-((2-(dimethylphosphoryl)phenyl)amino)pyrimidin-2-yl)amino)-3-methoxyphenyl)piperidin-4-yl)piperazin-1-yl)methyl)azetidin-1-yl)-1-oxoisoindolin-2-yl)piperidine-2,6-dione] registered a 50% inhibitory concentration (IC50) in the assay on Ba/F3 ROS1-G2032R of 158 ± 81 nM. Further, in the assay on ROS1, the DC50 worked out at 20 nM and the “Dmax (%) (ROS1)” value is on record as 94%. The molecule further showed a half-maximal inhibitory concentration (IC50) in assay [1] of 15.3 ± 4.5 nM.

`COc1cc(N2CCC(N3CCN(CC4CCN(c5ccc(NC6CCC(=O)NC6=O)cc5)CC4)CC3)CC2)ccc1Nc1ncc(Cl)c(Nc2ccccc2P(C)(C)=O)n1` (stereo not shown) [9q, 3-((4-(4-((4-(1-(4-((5-Chloro-4-((2-(dimethylphosphoryl)phenyl)amino)pyrimidin-2-yl)amino)-3-methoxyphenyl)piperidin-4-yl)piperazin-1-yl)methyl)piperidin-1-yl)phenyl)amino)piperidine-2,6-dione] registered an IC50 with Ba/F3 ROS1-G2032R of over 10000 nM. In addition, in the assay with ROS1, the DC50 was 145 nM and the “Dmax (%) (ROS1)” value is 33%. Besides, the IC50 in assay [1] came out at 102 ± 24 nM.
